What was measured:
lipoamide = compound: NC(=O)CCCCC1CCSS1 [lipoamide]; experiment: thermal stability z-score vs DMSO; higher = more thermally stabilized by treatment; conditions: HeLa, lipoamide concentration 100 µM
Method: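 Cellular thermal proteome profiling in HeLa cells. Cells were treated with 100 µM lipoamide for 1 h, with or without 1 mM arsenate for a further 1 h, then heated to ten temperatures (37-66.3 °C), and soluble protein was quantified by TMT mass spectrometry relative to 0.1% DMSO controls. The thermal stability score (sum of log2 fold changes minus the abundance score) was transformed to a z-score; mean of n = 3 experiments.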

potassium arsenate = compound: O=[As]([O-])(O)O.[K+] [potassium arsenate]; experiment: as above; conditions: HeLa; arsenate concentration 1 mM
Method: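 Cellular thermal proteome profiling in HeLa cells treated with 1 mM arsenate for 1 h (DMSO pretreatment), heated to ten temperatures (37-66.3 °C). Soluble protein was quantified by TMT mass spectrometry relative to DMSO controls; the thermal stability score was transformed to a z-score; mean of n = 3 experiments.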

[1] = arsenate co-treatment: 1 mM arsenate 1 h
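Also: each temperature applied for 3 min, abundance score taken as mean log2 fold change at the two lowest temperatures, z-score obtained by mean subtraction and division by SD.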

UniProt Q96PQ0, sequence (Q96PQ0 whole entry): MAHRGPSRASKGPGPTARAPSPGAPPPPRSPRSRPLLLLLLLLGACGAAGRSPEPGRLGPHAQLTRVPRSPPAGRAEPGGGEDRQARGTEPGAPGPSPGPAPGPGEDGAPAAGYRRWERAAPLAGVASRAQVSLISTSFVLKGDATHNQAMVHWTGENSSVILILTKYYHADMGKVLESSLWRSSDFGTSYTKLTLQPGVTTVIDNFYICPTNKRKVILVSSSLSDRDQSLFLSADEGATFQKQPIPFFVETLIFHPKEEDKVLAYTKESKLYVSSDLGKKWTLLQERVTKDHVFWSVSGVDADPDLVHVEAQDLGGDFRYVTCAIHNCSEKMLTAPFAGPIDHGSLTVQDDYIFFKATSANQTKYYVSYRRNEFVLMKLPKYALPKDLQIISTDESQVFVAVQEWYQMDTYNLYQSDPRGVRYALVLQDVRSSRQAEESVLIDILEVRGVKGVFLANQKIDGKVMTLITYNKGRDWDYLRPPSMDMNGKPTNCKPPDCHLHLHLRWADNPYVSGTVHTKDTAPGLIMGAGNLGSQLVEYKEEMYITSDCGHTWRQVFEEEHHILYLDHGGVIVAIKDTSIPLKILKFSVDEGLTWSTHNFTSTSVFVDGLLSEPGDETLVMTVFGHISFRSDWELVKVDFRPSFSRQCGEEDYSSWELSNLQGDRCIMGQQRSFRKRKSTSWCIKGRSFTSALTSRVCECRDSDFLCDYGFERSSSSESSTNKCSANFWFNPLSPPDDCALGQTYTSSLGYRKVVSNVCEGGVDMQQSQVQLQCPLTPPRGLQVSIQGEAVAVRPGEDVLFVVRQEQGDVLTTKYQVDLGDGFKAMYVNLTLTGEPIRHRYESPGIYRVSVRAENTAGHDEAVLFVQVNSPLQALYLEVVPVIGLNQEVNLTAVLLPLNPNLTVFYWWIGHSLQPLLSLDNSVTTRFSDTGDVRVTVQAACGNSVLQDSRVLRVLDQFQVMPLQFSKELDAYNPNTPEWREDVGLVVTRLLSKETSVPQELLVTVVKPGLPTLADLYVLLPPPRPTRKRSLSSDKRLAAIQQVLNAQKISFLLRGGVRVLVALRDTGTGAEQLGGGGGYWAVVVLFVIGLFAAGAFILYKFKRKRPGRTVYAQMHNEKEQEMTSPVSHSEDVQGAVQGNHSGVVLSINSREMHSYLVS
UniProt Q53LP3, sequence (Q53LP3 whole entry): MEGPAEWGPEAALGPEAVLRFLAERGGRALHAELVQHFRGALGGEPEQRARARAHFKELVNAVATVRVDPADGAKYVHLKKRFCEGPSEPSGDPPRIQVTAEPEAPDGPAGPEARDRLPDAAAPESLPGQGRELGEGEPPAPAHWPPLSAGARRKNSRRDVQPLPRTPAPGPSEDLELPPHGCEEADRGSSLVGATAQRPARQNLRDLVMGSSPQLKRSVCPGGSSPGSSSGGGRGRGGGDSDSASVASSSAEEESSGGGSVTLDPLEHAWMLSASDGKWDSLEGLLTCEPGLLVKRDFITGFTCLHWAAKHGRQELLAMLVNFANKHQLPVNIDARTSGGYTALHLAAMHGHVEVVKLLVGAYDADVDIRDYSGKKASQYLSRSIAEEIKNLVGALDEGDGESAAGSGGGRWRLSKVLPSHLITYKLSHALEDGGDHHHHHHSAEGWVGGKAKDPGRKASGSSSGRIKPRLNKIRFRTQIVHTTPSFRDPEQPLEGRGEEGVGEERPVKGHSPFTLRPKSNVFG
UniProt O95219, sequence (O95219 whole entry): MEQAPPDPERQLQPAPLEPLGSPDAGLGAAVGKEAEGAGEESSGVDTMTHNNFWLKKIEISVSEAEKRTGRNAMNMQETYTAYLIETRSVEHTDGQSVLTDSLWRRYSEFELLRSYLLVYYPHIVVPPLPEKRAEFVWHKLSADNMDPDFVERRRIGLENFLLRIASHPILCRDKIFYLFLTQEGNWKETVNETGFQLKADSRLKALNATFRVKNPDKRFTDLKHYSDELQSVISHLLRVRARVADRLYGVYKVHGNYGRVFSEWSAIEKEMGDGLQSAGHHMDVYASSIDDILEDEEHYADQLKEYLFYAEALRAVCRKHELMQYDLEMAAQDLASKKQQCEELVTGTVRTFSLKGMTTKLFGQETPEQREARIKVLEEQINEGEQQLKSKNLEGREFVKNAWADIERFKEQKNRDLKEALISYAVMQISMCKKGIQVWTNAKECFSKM
UniProt Q13573, sequence (Q13573 whole entry): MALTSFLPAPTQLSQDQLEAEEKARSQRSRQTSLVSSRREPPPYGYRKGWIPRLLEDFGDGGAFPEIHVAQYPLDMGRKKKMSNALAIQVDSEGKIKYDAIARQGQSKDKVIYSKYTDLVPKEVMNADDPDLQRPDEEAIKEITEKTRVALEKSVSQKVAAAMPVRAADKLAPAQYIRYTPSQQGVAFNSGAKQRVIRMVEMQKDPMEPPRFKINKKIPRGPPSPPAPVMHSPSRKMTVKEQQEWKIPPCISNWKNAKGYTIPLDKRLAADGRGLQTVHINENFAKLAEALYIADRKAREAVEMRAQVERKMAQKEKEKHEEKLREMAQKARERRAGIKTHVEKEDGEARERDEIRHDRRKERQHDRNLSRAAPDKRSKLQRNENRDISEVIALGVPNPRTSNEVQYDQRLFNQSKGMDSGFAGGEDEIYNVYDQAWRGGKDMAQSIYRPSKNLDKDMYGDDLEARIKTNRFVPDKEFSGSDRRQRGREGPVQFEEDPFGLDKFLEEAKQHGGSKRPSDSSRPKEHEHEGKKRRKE
UniProt Q13596, sequence (Q13596 whole entry): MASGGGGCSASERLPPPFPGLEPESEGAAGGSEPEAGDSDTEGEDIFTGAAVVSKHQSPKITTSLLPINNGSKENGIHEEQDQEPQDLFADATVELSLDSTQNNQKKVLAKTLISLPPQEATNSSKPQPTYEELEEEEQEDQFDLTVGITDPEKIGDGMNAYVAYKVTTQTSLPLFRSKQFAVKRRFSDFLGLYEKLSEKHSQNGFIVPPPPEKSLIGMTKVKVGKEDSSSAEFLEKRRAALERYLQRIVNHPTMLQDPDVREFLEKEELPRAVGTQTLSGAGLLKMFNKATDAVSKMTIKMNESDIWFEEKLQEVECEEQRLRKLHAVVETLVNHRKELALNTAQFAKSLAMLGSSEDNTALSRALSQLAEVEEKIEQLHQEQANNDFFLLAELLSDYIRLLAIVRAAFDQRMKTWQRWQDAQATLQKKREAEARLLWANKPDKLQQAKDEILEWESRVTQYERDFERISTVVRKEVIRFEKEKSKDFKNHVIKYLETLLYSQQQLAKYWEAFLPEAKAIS
UniProt Q9NRS6, sequence (Q9NRS6 whole entry): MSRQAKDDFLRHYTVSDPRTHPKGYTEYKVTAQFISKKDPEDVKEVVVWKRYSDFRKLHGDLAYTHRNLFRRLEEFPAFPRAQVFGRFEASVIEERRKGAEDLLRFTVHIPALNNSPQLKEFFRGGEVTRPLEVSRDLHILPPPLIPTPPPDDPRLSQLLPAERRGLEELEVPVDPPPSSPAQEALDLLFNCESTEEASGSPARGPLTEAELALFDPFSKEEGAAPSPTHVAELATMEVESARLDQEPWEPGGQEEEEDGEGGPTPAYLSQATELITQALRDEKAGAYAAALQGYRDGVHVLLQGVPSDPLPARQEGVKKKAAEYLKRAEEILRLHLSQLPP
UniProt Q96DI7, sequence (Q96DI7 whole entry): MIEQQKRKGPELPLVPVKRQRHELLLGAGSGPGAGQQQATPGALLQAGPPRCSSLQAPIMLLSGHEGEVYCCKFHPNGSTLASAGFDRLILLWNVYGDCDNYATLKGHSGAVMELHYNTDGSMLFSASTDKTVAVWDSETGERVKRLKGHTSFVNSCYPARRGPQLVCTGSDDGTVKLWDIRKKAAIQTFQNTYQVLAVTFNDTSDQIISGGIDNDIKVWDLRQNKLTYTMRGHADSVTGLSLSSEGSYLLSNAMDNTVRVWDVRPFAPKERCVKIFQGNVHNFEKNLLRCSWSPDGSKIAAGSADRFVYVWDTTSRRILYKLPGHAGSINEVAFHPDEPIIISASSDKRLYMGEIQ
UniProt O14544, sequence (O14544 whole entry): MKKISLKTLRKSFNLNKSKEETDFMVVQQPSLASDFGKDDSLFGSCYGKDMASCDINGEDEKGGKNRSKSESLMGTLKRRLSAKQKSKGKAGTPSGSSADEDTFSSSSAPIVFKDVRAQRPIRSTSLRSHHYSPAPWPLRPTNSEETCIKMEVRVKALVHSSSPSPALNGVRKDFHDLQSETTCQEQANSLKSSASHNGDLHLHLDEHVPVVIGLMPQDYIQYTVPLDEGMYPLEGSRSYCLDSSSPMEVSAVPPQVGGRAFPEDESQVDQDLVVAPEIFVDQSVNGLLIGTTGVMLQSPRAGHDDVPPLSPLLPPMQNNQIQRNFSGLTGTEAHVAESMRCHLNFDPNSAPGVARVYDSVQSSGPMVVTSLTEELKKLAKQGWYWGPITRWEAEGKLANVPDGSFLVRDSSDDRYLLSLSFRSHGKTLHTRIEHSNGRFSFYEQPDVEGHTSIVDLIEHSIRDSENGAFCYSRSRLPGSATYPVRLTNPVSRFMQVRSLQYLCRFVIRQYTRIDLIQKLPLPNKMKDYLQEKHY
UniProt Q9Y5X1, sequence (Q9Y5X1 whole entry): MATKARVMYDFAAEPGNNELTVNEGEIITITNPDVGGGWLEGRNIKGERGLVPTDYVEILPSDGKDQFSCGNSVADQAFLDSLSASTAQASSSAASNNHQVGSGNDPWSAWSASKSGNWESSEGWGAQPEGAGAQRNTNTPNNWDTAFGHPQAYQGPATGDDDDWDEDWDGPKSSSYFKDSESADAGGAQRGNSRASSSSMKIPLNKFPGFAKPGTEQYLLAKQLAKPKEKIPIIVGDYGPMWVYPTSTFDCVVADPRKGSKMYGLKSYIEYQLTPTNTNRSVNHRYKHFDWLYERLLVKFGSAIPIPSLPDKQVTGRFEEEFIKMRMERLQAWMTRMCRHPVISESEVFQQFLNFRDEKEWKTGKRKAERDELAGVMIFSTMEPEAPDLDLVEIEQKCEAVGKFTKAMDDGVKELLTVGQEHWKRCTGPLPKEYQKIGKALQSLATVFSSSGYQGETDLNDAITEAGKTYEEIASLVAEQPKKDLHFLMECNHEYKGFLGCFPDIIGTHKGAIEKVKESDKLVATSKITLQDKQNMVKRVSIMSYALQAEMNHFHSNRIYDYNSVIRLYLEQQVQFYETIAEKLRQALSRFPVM

Target	thermal stability z-score (lipoamide; [1])	thermal stability z-score (lipoamide; arsenate co-treatment: none)	thermal stability z-score (potassium arsenate)
SNCA (UniProt P37840)	0.553	0.198	-0.263
SNCG (UniProt O76070)	1.49	0.999	0.0455
SND1 (UniProt Q7KZF4)	0.317	0.479	-1.08
SNF8 (UniProt Q96H20)	-0.129	-0.418	-0.156
SNRNP27 (UniProt Q8WVK2)	0.418	-0.21	0.444
SNRNP40 (UniProt Q96DI7)	0.383	-0.0333	-0.213
SNRNP70 (UniProt P08621)	-0.195	-0.247	-0.58
SNRNP200 (UniProt O75643)	-0.116	-0.285	-0.662
SNRPA1 (UniProt P09661)	1.91	1.08	0.474
SNRPA (UniProt P09012)	0.0421	-0.126	0.938
SNRPB2 (UniProt P08579)	0.953	0.704	-0.319
SNRPB|SNRPN	0.508	0.162	0.578
SNRPC (UniProt P09234)	0.137	0.0659	0.905
SNRPD2 (UniProt P62316)	1.08	0.689	1.15
SNRPD3 (UniProt P62318)	0.93	0.207	0.399
SNRPF (UniProt P62306)	0.0402	-0.072	0.116
SNRPGP15|SNRPG	1.63	0.677	0.296
SNTB1 (UniProt Q13884)	-0.307	1.19	1.29
SNTB2 (UniProt Q13425)	0.14	-0.309	-0.227
SNU13 (UniProt P55769)	-0.119	0.0598	1.62
SNUPN (UniProt O95149)	-0.201	-1.48	-0.43
SNW1 (UniProt Q13573)	-0.497	-0.726	-0.395
SNX1 (UniProt Q13596)	0.0174	-0.29	0.327
SNX2 (UniProt O60749)	-0.0255	0.0641	0.364
SNX3 (UniProt O60493)	-0.62	-0.231	0.0169
SNX4 (UniProt O95219)	-0.688	-0.344	0.288
SNX5 (UniProt Q9Y5X3)	-0.497	-0.998	-0.458
SNX6 (UniProt Q9UNH7)	0.175	0.276	0.277

Target	thermal stability z-score (lipoamide; [1])	thermal stability z-score (lipoamide; arsenate co-treatment: none)	thermal stability z-score (potassium arsenate)
SNX8 (UniProt Q9Y5X2)	1.1	-0.149	-0.369
SNX9 (UniProt Q9Y5X1)	-0.0697	-0.0413	0.276
SNX12 (UniProt Q9UMY4)	-0.128	-0.00318	0.108
SNX15 (UniProt Q9NRS6)	-0.412	0.114	0.121
SNX16 (UniProt P57768)	1.01	-0.515	-0.741
SNX17 (UniProt Q15036)	-0.581	0.118	-0.423
SNX27 (UniProt Q96L92)	-0.141	0.167	0.511
SNX30 (UniProt Q5VWJ9)	-0.254	0.144	-0.275
SNX33 (UniProt Q8WV41)	-0.136	0.0586	-0.148
SOAT1 (UniProt P35610)	-1.32	-0.546	0.731
SOCS6 (UniProt O14544)	0.0176	0.0429	0.053
SOD1 (UniProt P00441)	-0.57	-0.258	-0.236
SOD2 (UniProt P04179)	0.512	0.261	0.195
SOGA1 (UniProt O94964)	0.0497	-0.0282	-0.097
SORBS3 (UniProt O60504)	-0.117	0.0779	-0.323
SORCS2 (UniProt Q96PQ0)	-0.156	-0.45	-0.319
SORD (UniProt Q00796)	0.301	-0.192	-0.608
SORT1 (UniProt Q99523)	-0.0906	0.945	1.41
SOS1 (UniProt Q07889)	0.324	0.304	0.167
SOWAHC (UniProt Q53LP3)	0.277	0.343	0.0878
SOX13 (UniProt Q9UN79)	-0.169	0.00372	-0.618
SP1 (UniProt P08047)	-0.0425	-0.199	0.789
SP3 (UniProt Q02447)	-0.177	-0.427	-0.584
SP100 (UniProt P23497)	3.43	0.96	4.5
SPAG1 (UniProt Q07617)	0.0825	0.0754	-0.401
SPAG5 (UniProt Q96R06)	-0.791	-0.122	-0.162
SPAG7 (UniProt O75391)	0.493	0.212	-0.214
